Patent publication US20260374782A1, “NEW COMPOUNDS, PROCESSES FOR PREPARING THE SAME AND THEIR USE AS DRUGS” (B&A ONCOMEDICAL, priority 2022, published 2026)
Like-named read-outs stand apart in the source and are kept apart here.

Assays:
NKCC1-KO HEK293 cells = assay: K+ influx (83Rb uptake) in NKCC1-KO HEK293 cells; format: cell-based, human
Protocol: A. Contribution of NKCC1 to K^+ influx in native HEK293 cells under isosmotic (basal) conditions. K^+ influx was measured in untreated cells (Cntr), cells exposed to 100 μM ouabain (ouab), 20 μM bumetanide (bum), or both. B. Signal separation between native HEK293 cells with and without 20 μM bumetanide. Cells were tested in a hypertonic saline and in the presence of 100 μM ouabain. These conditions became our standard conditions for drug testing. C. Absence of bumetanide-sensitive K^+ influx in A-NKCC1 HEK293 cells. Note that the K^+ influx was reduced to basal levels.
NKCC1 expression was eliminated from HEK293 cells using CRISPR/cas9. Cells were transfected with a vector expressing a cas9-EGFP fusion protein and a guide RNA specific to a NKCC1 sequence ([…]; SEQ ID NO: 1) located within exon 1. Two days post transfection, cells were FACS sorted and cells expressing EGFP and cas9 (green cells) were plated at 1 cell per well in 96 well plates. Cells were grown to confluence, duplicated, and tested for NKCC1 function using Tl+ (another congener of K^+) and a thallium sensitive fluorescent dye in the presence or absence of bumetanide.

NKCC2 = settings: in words; cited from earlier work
[1] = Fragile X, Tuberous Sclerosis, Down syndrome, or Parkinson Disease; cited from earlier work
NKCC1 = molecular target: T1, NKCC1 (Homo sapiens, UniProt P55011); assay: NKCC1-mediated K+ influx (83Rb tracer uptake) in native HEK293 cells, hypertonic saline, 100 μM ouabain; format: cell-based
T1 construct: endogenous in cells; host or cells: native HEK293 cells
T1 sequence (P55011 1-1212): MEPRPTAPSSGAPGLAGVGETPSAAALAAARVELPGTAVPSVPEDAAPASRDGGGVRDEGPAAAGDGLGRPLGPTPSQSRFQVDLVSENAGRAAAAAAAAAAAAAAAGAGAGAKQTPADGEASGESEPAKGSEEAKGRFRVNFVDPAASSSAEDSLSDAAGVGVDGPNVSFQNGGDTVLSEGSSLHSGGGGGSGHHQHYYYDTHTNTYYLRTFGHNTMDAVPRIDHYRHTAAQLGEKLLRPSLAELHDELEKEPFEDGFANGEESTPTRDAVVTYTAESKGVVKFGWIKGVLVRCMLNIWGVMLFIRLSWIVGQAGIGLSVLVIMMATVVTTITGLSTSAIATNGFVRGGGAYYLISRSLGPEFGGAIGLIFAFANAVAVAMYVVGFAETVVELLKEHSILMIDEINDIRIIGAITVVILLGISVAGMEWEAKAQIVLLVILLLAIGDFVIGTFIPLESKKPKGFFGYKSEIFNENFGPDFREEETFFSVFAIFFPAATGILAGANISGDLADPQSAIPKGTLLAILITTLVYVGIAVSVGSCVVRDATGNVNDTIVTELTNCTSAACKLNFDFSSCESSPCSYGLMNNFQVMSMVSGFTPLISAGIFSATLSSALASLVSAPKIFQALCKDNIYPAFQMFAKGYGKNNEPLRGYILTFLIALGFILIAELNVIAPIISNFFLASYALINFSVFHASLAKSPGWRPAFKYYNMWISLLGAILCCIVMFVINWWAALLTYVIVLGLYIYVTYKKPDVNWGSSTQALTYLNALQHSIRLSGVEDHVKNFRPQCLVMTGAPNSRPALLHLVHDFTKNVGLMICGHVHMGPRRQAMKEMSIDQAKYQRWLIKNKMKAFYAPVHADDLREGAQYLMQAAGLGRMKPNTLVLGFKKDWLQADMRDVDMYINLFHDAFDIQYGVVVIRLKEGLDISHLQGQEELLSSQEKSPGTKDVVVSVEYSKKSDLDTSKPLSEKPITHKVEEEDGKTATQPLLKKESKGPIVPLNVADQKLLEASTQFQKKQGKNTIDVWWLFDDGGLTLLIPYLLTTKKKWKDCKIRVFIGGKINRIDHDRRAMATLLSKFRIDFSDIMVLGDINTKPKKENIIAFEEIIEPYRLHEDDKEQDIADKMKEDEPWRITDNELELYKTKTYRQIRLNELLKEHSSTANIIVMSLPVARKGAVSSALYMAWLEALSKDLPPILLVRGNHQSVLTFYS
Procedure, shortened: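 Native cells in slightly hypertonic saline with 100 μM ouabain; 15 min preincubation then 15 min 83Rb uptake (0.25 μCi/mL), scintillation counting normalized to protein. Compounds at 2 μM and 20 μM; flux scaled 1000 (no drug) to 0 (20 μM bumetanide), triplicate dishes.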

[2] = cited from earlier work
[3] = HEK293, 2 μM, no drug = 1000, 20 μM bumetanide = 0, read-out: NKCC1 mediated flux inhibition at 2 μM (%)
[4] = HEK293, 20 μM, no drug = 1000, 20 μM bumetanide = 0, read-out: NKCC1 mediated flux inhibition at 20 μM (%)
[5] = 2 μM, native HEK293, read-out: Percent inhibition of drugs on NKCC1, 2 uM
[6] = 20 μM, native HEK293, read-out: Percent inhibition of drugs on NKCC1, 20 uM

Compound: CCCCNc1cc(C(=O)O)cc(S(N)(=O)=O)c1Oc1ccccc1 [Bumetanide]
- effect on K+ influx in NKCC1-KO cells (NKCC1-KO HEK293 cells): no longer affected K^+ influx
- diuretic potency (NKCC2): high diuretic potency
- attenuation of severity of disorders [1]: attenuation
- flux (normalized) (NKCC1; 2 μM, no drug flux=1000, 20 μM bumetanide flux=0, n=6): 171±21
- brain levels lower than the plasma ([2]; brain vs plasma): 200-300 fold
- blood brain barrier permeability ([2]; in words): quite impermeable

Compound: CCCCN=S(C)(=O)c1cc(C(=O)O)cc(NCCCC)c1Oc1ccccc1 (centres unmarked) [Compound 131, 3-(butylamino)-5-(N-butyl-S-methyl-sulfonimidoyl)-4-phenoxy-benzoic acid]
- inhibition at 2 µM (NKCC1; [3]): 30 to 50%
- inhibition at 20 µM (NKCC1; [4]): ≥ 75%

Compound: CN=S(C)(=O)c1cc(C(=O)OC)cc(N)c1Oc1ccccc1 (centres unmarked) [Compound 132, methyl 3-amino-5-(N,S-dimethylsulfonimidoyl)-4-phenoxy-benzoate]
- inhibition at 2 µM (NKCC1; [3]): 30 to 50%
- inhibition at 20 µM (NKCC1; [4]): 10 to 30%

Compound: CCCCNc1cc(C(=O)OC)cc(S(C)(=O)=NC)c1Oc1ccccc1 (centres unmarked) [Compound 133, methyl 3-(butylamino)-5-(N,S-dimethylsulfonimidoyl)-4-phenoxy-benzoate]
- inhibition at 2 µM (NKCC1; [3]): 30 to 50%
- inhibition at 20 µM (NKCC1; [4]): 10 to 30%

Compound: CCCCNc1cc(C(=O)O)cc(S(C)(=O)=NC)c1Oc1ccccc1 (centres unmarked) [Compound 134, 3-(butylamino)-5-(N,S-dimethylsulfonimidoyl)-4-phenoxy-benzoic acid]
- inhibition at 2 µM (NKCC1; [3]): 30 to 50%
- inhibition at 20 µM (NKCC1; [4]): 50 to 75%

Compound: C[C@@H]1O[C@@H](O[C@H]2C[C@@H](O)[C@]3(CO)[C@H]4[C@H](O)C[C@]5(C)[C@@H](C6=CC(=O)OC6)CC[C@]5(O)[C@@H]4CC[C@]3(O)C2)[C@H](O)[C@H](O)[C@H]1O [Ouabain, ouabain, reference compound]
- effect on flux not mediated by the cotransporter (NKCC1; 100 μM, inhibitor of the Na+/K+ pump): greatly reduced the flux not mediated by the cotransporter

Compound: CCCCNc1cc(C(=O)O)cc(S(N)(=O)=O)c1Oc1ccccc1 [Ref 1, bumetanide, reference compound]
- inhibition at 2 µM (NKCC1; [5]): 87%
- inhibition at 20 µM (NKCC1; [6]): 100%
- K+ influx in the presence of compound (NKCC1; 20 μM, native HEK293 without compound 7000-9000): 600-900 pmoles K+ per mg protein per m

Compound: NS(=O)(=O)c1cc(C(=O)O)c(NCc2ccco2)cc1Cl [Ref 2, furosemide, reference compound]
- inhibition at 2 µM (NKCC1; [5]): 32%
- inhibition at 20 µM (NKCC1; [6]): 77%
